Several values for one entry are separate records, joined by “and”; a condition that tells them apart may be missing. Identical values can stand only once. Entries after “also recorded” stand apart in the source; their conditions may differ.
Assays:
[1] = tested on: rat cardiac Troponin-I (cTnI); test: Cardiac toxicity, serum cardiac Troponin-I (cTnI) ELISA after single IV dose; assay type: in vivo; settings: for cTnI concentrations in serum: 12, 24 and 48 h after single IV 10 mg/kg Dox or equimolar DoxQ
Experimental: Samples were centrifuged to obtain the serum and stored at −20 °C in a freezer until analysis. On the day of the analysis, cTnI concentrations were measured in serum samples following the manufacturer’s instructions. The area under the effect curve (AUEC) was calculated for cTnI concentrations at 12–48 h post-dosing using the trapezoidal rule by WinNonlin® software.

[2] = Renal toxicity, urinary output over 24 h after single IV dose; assay type: in vivo, rat; settings: 24 h after single IV 10 mg/kg Dox or equimolar DoxQ
Experimental: The total urine volume excreted over 24 h post-dosing was compared to the total urine volume excreted over 24 h pre-dosing.

[3] = Pharmacokinetic study after IV administration, rat serum and urine; settings: for fe, fraction excreted unchanged in urine: administered compound intact in urine; for CLhepatic: n = 3, CLtot minus CLrenal
in vivo [4] = settings: male, Sprague-Dawley, rat, serum, po, 10 mg/kg, F, Dox after PO Dox 10 mg/kg, n = 3
[5] = tested on: β-N-acetylglucosaminidase (NAG); test: Renal toxicity, β-N-acetylglucosaminidase (NAG) in rat urine after single IV dose; assay type: in vivo; settings: after single IV 10 mg/kg Dox or equimolar DoxQ
Experimental: Urine samples from pharmacokinetics experiments were collected from metabolic cages at 0 h, 12 h, 24 h, and 48 h and stored at −20 °C until analysis. Concentrations of NAG urine samples were measured using an assay kit from ALPCO Diagnostics (Salem, NH, USA, cat. No. 73-1290050) on a Medica EasyRA automated clinical chemistry analyzer (Medica Corporation, Bedford, MA, USA).

in vivo [6] = settings: male, Sprague-Dawley, rat, iv, 10 mg/kg
[7] = Predicted physicochemical properties (VCCLAB, MarvinSketch, GastroPlus); settings: predicted values
Experimental: LogP and LogS values of DoxQ were predicted using an online computer software (VCCLAB, Virtual Computational Chemistry Laboratory). pKa, logP, logD at pH 7.4, intrinsic solubility, and solubility at pH 7.4 were calculated using MarvinSketch v. […] 9.0.0007 (Simulations Plus, Inc., Lancaster, CA, USA). […] The melting point of DoxQ was experimentally determined by MEL-TEMPII melting point apparatus from Laboratory Devices (Holliston, MA, USA).

CYP3A4 = tested on: CYP3A4; set-up: method as in PMID 28462502; settings: in vitro; cited from earlier work
rat cardiomyocytes = tested on: rat cardiomyocytes; set-up: method as in PMID 28462502; settings: cited from earlier work
human cardiomyocytes = tested on: human cardiomyocytes; set-up: method as in PMID 28462502; settings: cited from earlier work
[8] = tested on: P–gp-positive (MDCK–MDR) cells; set-up: method as in PMID 28462502; settings: cited from earlier work
[9] = Intestinal lymphatic delivery, mesenteric lymph duct cannulated rat model; assay type: in vivo, male Sprague–Dawley rats; settings: over one hour after oral 10 mg/kg, n = 3
Source text: The intestinal transport of DoxQ via lymphatics was examined in vivo by two methods.
Six male Sprague–Dawley rats (~300 g) were obtained from Charles River Labs (Montreal, QC, Canada) and given food (Purina Rat Chow 5001) and water ad libitum in the animal facility for at least three days before use. On the day of surgical operation, rats were anesthetized by isoflurane and the abdominal hair was shaved. Rats were maintained under inhaled anesthesia on a warm surgical table. A ~2.5 cm abdominal midline skin incision was made and extended through the musculature using blunt dissection beginning the incision at a point just above the xyphoid cartilage and proceeding distally. […] The lymph duct was isolated from the surrounding connective tissue and a small incision was made with a bent 23 G needle in the ventral wall of the lymph. A catheter was inserted through the incision and secured by placing a small cellulose patch with a drop of Vetbond^TM over the point of insertion into the lymph duct. When a gradual and continuous flow of lymph was observed, an initial lymph sample was collected into a normal microtube. […] Thereafter, lymph samples were collected over one hour after dosing. The animals were euthanized after the last lymph sample collection.

[10] = set-up: method as in PMID 28462502; settings: in vitro; cited from earlier work
[11] = tested on: triple negative murine breast cancer cell line; set-up: method as in PMID 28462502; settings: cited from earlier work
CYP1B1 = tested on: CYP1B1; set-up: method as in PMID 28462502; settings: expression and catalytic activity; cited from earlier work
[12] = administered compound intact in rat serum, IV Dox 10 mg/kg or equimolar DoxQ, mean ± SEM
[13] = IV Dox 10 mg/kg or equimolar DoxQ
[14] = administered compound intact, IV Dox 10 mg/kg or equimolar DoxQ
[15] = male, Sprague-Dawley, rat, serum, iv, 10 mg/kg

With `COc1cccc2c1C(=O)c1c(O)c3c(c(O)c1C2=O)C[C@@](O)(C(=O)CO)C[C@@H]3O[C@H]1C[C@H](N)[C@H](O)[C@H](C)O1` [Dox, Doxorubicin] the “cTnI concentrations in serum” value [1] was “increase in cTnI”, the “Total urine volume over 24 h” value [2] was “no significant difference” and the “F, bioavailability” value (Dox after PO Dox 10 mg/kg, n = 3) was 8.57 ± 0.71%. The “Vss of Dox relative to Vss of DoxQ” value ([3]; IV, equimolar doses) was ~ 80 fold, the C0 [3, 12] was 24700 ± 14200 ng/mL and the Clast [3, 12] was 120 ± 30 ng/mL. For the same molecule, the “fe, fraction excreted unchanged in urine” value [3, 13] was ~ 11% and 10.73 ± 3.14%, the CLhepatic [3, 14] was 39.2 ± 6 mL/min/kg and the AUC(0-inf) [3, 15] was 4790 ± 1830 ng·h/mL. For the same molecule, the AUC(0-t) [3, 15] was 3970 ± 700 ng·h/mL, the CL renal [3, 15] was 4.67 mL/min/kg and the clearance [3, 15] was 43.8 mL/min/kg. It also gave a half-life [3, 15] of 4.69 ± 0.8 h, a k el [3, 15] of 4.44e-05 s⁻¹ and a C0 ([3]; male, Sprague-Dawley, rat, serum, iv, 10 mg/kg, C0, administered compound intact in rat serum, IV Dox 10 mg/kg or equimolar DoxQ, mean ± SEM) of roughly 25000 ng/mL. For the same molecule, the Vd ([3]; male, Sprague-Dawley, rat, serum, iv, 10 mg/kg, Vss, administered compound intact, IV Dox 10 mg/kg or equimolar DoxQ, mean ± SEM) was 6.35 ± 2.11 L/kg, the bioavailability (in vivo [4]) was roughly 8.5% and the “Cumulative amount of NAG excreted in urine” value [5] was “higher cumulative amounts”.

For `COc1cccc2c1C(=O)c1c(O)c3c(c(O)c1C2=O)CC(O)(C(=O)CO)CC3OC1CC(NC(=O)CNC(=O)Oc2ccc(-c3oc4cc(O)cc(O)c4c(=O)c3O)cc2O)C(O)C(C)O1` (centres unmarked) [DoxQ], the AUC(0-t) (in vivo [6]) was 18600 ± 1980 ng·h/mL, the CL renal (in vivo [6]) was 0.333 mL/min/kg and the clearance (in vivo [6]) was 8.83 mL/min/kg. It also gave a half-life (in vivo [6]) of 9.6 ± 18 min, a k el (in vivo [6]) of 0.00127 s⁻¹ and a C0 (in vivo [6]; C0, administered compound intact in rat serum, IV Dox 10 mg/kg or equimolar DoxQ, mean ± SEM) of roughly 108000 ng/mL. For the same molecule, the Vd (in vivo [6]; Vss, administered compound intact, IV Dox 10 mg/kg or equimolar DoxQ, mean ± SEM) was 0.138 ± 0.015 L/kg, the “cTnI concentrations in serum” value ([1]; 10 mg/kg) was “also had an increase in cTnI at each time point” and the “AUEC of cTnI concentrations” value ([1]; 12–48 h after single IV 10 mg/kg Dox or equimolar DoxQ) was “lower than the AUEC after Dox”. For the same molecule, the “LogP of DoxQ relative to Dox” value [7] was 3–5 fold, the “LogD7.4 of DoxQ relative to Dox” value ([7]; pH 7.4) was 25 fold and the “Total urine volume over 24 h” value [2] was “no significant difference”. For the same molecule, the “Inhibition of CYP3A4” value (CYP3A4) was “inhibited”, the “Toxicity to cardiomyocytes compared to Dox” value (rat cardiomyocytes) was “less toxic; also recorded: less cardiotoxic than Dox” and the “Toxicity to cardiomyocytes compared to Dox” value (human cardiomyocytes) was “less toxic; also recorded: less cardiotoxic than Dox”. The “Intact DoxQ in serum after oral dosing” value (PO DoxQ) was “not detected”, the “Cellular uptake compared to free Dox” value [8] was “higher cellular uptake” and the “Cumulative amount of Dox in mesenteric lymph fluid, compared to after Dox” value [9] was “twice as high; also recorded: two-fold higher”. The “Release of Dox and quercetin from DoxQ” value [10] was “controlled release of both Dox and quercetin released from DoxQ over four days”, the Anti-cancer activity [11] was “retained anti-cancer activity” and the “Effect on CYP1B1” value (CYP1B1) was “inhibitory effects”. The “AUC of intact DoxQ relative to AUC of Dox after Dox” value ([3]; IV, equimolar doses) was 5 fold, the “C0 / serum concentration of intact DoxQ relative to Dox after Dox” value ([3]; IV, equimolar doses) was 4–5 fold and 5 fold and the C0 [3, 12] was 108000 ± 26400 ng/mL. The Clast [3, 12] was 1110 ± 170 ng/mL, the “fe, fraction excreted unchanged in urine” value [3, 13] was ~ 5% and 4.32 ± 1.005% and the Vss ([3]; administered compound intact, IV Dox 10 mg/kg or equimolar DoxQ, mean ± SEM) was 0.08 ± 0.015 L/kg. The CLhepatic [3, 14] was 8.5 ± 1 mL/min/kg and the “Cumulative amount of NAG excreted in urine” value ([5]; 10 mg/kg) was “lower after IV DoxQ than Dox”.

Source: article PMC5620576 (Pharmaceutics, 2017)
